Measured values as given in ChEMBL document CHEMBL1201862, “PubChem BioAssay data set” (2004).
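1) Cells in 96-well plates. 2) Compound, 48 h, 5 concentrations. 3) Linear interpolation between surrounding doses. 4) Unreached endpoint = highest concentration. GI50: concentration for 50% inhibition of growth.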 Activity calls are given as the source filed them. No stated cut-off is given here; in the data, active = GI50 up to about 1.1 µM and inactive = higher.

Tests used:
Assay in all cases: NCI tumour cell line growth inhibition, 48 h
OVCAR-3 = system: OVCAR-3
A549 = system: A549
ACHN = system: ACHN
HT-29 = system: HT-29
SW-620 = system: SW-620
NCI-H522 = system: NCI-H522
SK-MEL-2 = system: SK-MEL-2
UO-31 = system: UO-31
786-0 = system: 786-0
UACC-257 = system: UACC-257
OVCAR-4 = system: OVCAR-4
UACC-62 = system: UACC-62
RXF 393 = system: RXF 393
LOX IMVI = system: LOX IMVI
SR = system: SR

Row | SMILES | GI50 (OVCAR-3) | GI50 (A549) | GI50 (ACHN) | GI50 (HT-29) | GI50 (SW-620) | GI50 (NCI-H522) | GI50 (SK-MEL-2) | GI50 (UO-31) | GI50 (786-0) | GI50 (UACC-257) | GI50 (OVCAR-4) | GI50 (UACC-62) | GI50 (RXF 393) | GI50 (LOX IMVI) | GI50 (SR)
1 | C[C@]12CCc3nonc3C1CC[C@@H]1C2CC[C@@]2(C)C1CC[C@@H]2O (stereo partly drawn) | > 100 µM (inactive) | > 100 µM (inactive) | > 100 µM (inactive) | > 100 µM (inactive) | > 100 µM (inactive) | > 100 µM (inactive) | > 100 µM (inactive) | > 100 µM (inactive) | > 100 µM (inactive) | > 100 µM (inactive) | > 100 µM (inactive) | > 100 µM (inactive) | > 100 µM (inactive) | > 100 µM (inactive) | –
2 | Cc1ccc(NC(=O)CCC(=O)C2CC(=O)CCC2=O)cc1C (stereo not drawn) | > 100 µM (inactive) | > 100 µM (inactive) | > 100 µM (inactive) | > 100 µM (inactive) | > 100 µM (inactive) | – | > 100 µM (inactive) | > 100 µM (inactive) | > 100 µM (inactive) | > 100 µM (inactive) | > 100 µM (inactive) | > 100 µM (inactive) | > 100 µM (inactive) | > 100 µM (inactive) | –
3 | CC(=O)OC1C(=O)C(O)C(C)OC1O[C@@H]1C[C@@]2(C)[C@@H]3CC=C4[C@@H](C[C@H](O)C(=O)C4(C)C)[C@]3(C)C(=O)C[C@]2(C)[C@H]1[C@@](C)(O)C(=O)/C=C/C(C)(C)O (stereo partly drawn) | 1.7 µM (inactive) | 2.64 µM (inactive) | 2.74 µM (inactive) | 1.35 µM (inactive) | 1.12 µM (inactive) | 0.975 µM (active) | 0.748 µM (active) | 3.18 µM (inactive) | 1.53 µM (inactive) | 0.91 µM (active) | 1.02 µM (active) | 3.15 µM (inactive) | 0.845 µM (active) | 0.706 µM (active) | 1.52 µM (inactive)
4 | CN(/N=C/c1ccnc2ccccc12)c1c([N+](=O)[O-])cc([N+](=O)[O-])cc1[N+](=O)[O-] | 41.6 µM (inactive) | 94.8 µM (inactive) | 72.6 µM (inactive) | > 100 µM (inactive) | 38.5 µM (inactive) | 27.6 µM (inactive) | 24.4 µM (inactive) | 26.7 µM (inactive) | > 100 µM (inactive) | > 100 µM (inactive) | 53.7 µM (inactive) | > 100 µM (inactive) | 39.2 µM (inactive) | 48.2 µM (inactive) | –
5 | COc1ccccc1OCc1nnc(SCC(=O)O)n1-c1ccccc1 | > 100 µM (inactive) | > 100 µM (inactive) | > 100 µM (inactive) | > 100 µM (inactive) | – | > 100 µM (inactive) | > 100 µM (inactive) | > 100 µM (inactive) | > 100 µM (inactive) | > 100 µM (inactive) | > 100 µM (inactive) | > 100 µM (inactive) | – | > 100 µM (inactive) | > 100 µM (inactive)
6 | CC(=O)O[C@H]1CC[C@@]2(C)C(=CC[C@@H]3C2CC[C@]2(C)Nc4oncc4CC32)C1 (stereo partly drawn) | 16.3 µM (inactive) | 28.4 µM (inactive) | 25.6 µM (inactive) | 30.1 µM (inactive) | 43.3 µM (inactive) | – | 44.5 µM (inactive) | 18.3 µM (inactive) | > 100 µM (inactive) | 31.7 µM (inactive) | 16.8 µM (inactive) | 27.5 µM (inactive) | 38.8 µM (inactive) | – | –
7 | Cn1cc2ccccc2c1-c1nc(F)nc(Oc2ccc3c(c2)CC[C@@H]2C3CC[C@@]3(C)C2C[C@H](O)[C@@H]3O)n1 (stereo partly drawn) | 20.7 µM (inactive) | 18.6 µM (inactive) | 20.2 µM (inactive) | 19.3 µM (inactive) | 4.14 µM (inactive) | 11.8 µM (inactive) | 13 µM (inactive) | 16.4 µM (inactive) | 16.4 µM (inactive) | 23.5 µM (inactive) | – | 17.5 µM (inactive) | 19.4 µM (inactive) | – | –
8 | CN/N=C(/CC(=O)c1sc(NNC(C)=O)nc1C)C(=O)Nc1ccc(OC)cc1OC | > 100 µM (inactive) | > 100 µM (inactive) | > 100 µM (inactive) | > 100 µM (inactive) | > 100 µM (inactive) | > 100 µM (inactive) | > 100 µM (inactive) | > 100 µM (inactive) | > 100 µM (inactive) | > 100 µM (inactive) | > 100 µM (inactive) | > 100 µM (inactive) | – | > 100 µM (inactive) | > 100 µM (inactive)
9 | NC(=O)c1ccccc1NC(=O)C(=O)Cc1nc2ccccc2nc1O | > 100 µM (inactive) | > 100 µM (inactive) | > 100 µM (inactive) | – | > 100 µM (inactive) | > 100 µM (inactive) | > 100 µM (inactive) | > 100 µM (inactive) | > 100 µM (inactive) | > 100 µM (inactive) | > 100 µM (inactive) | > 100 µM (inactive) | > 100 µM (inactive) | > 100 µM (inactive) | –
10 | CC(C)c1cccc(C(C)C)c1NC1=CC(=O)C(=O)c2ccccc21 | > 100 µM (inactive) | > 100 µM (inactive) | – | > 100 µM (inactive) | > 100 µM (inactive) | 58.6 µM (inactive) | > 100 µM (inactive) | > 100 µM (inactive) | > 100 µM (inactive) | 67 µM (inactive) | – | > 100 µM (inactive) | > 100 µM (inactive) | 36.3 µM (inactive) | 35.5 µM (inactive)
11 | O=[N+]([O-])c1ccc(-c2csc(=[N+]3CCCCC3)s2)cc1 | 13.9 µM (inactive) | 1.93 µM (inactive) | 40.6 µM (inactive) | 6.04 µM (inactive) | 13.2 µM (inactive) | 3.61 µM (inactive) | 24.9 µM (inactive) | > 68.1 µM (inactive) | 34.4 µM (inactive) | 2.08 µM (inactive) | 18.5 µM (inactive) | 34.4 µM (inactive) | > 69.2 µM (inactive) | 26.1 µM (inactive) | 11.1 µM (inactive)
12 | Cc1ccc(C(O)/C(=N/N)c2nc3ccc([N+](=O)[O-])cc3nc2O)cc1 (stereo not drawn) | > 100 µM (inactive) | > 100 µM (inactive) | 47.3 µM (inactive) | > 100 µM (inactive) | > 100 µM (inactive) | 17.8 µM (inactive) | > 100 µM (inactive) | 45.4 µM (inactive) | > 100 µM (inactive) | > 100 µM (inactive) | > 100 µM (inactive) | 46.8 µM (inactive) | > 100 µM (inactive) | > 100 µM (inactive) | 58.7 µM (inactive)
13 | CCCCCN(CCCCC)C(=O)[C@H](CCC(=O)OCc1ccccc1)NC(=O)c1cc2ccccc2[nH]1 | > 100 µM (inactive) | > 100 µM (inactive) | > 100 µM (inactive) | > 100 µM (inactive) | > 100 µM (inactive) | > 100 µM (inactive) | > 100 µM (inactive) | > 100 µM (inactive) | > 100 µM (inactive) | > 100 µM (inactive) | > 100 µM (inactive) | > 100 µM (inactive) | > 100 µM (inactive) | > 100 µM (inactive) | –
14 | COc1cccc(C2=NC(C(C)C)CO2)c1OC (stereo not drawn) | > 100 µM (inactive) | > 100 µM (inactive) | > 100 µM (inactive) | > 100 µM (inactive) | > 100 µM (inactive) | > 100 µM (inactive) | > 100 µM (inactive) | > 100 µM (inactive) | > 100 µM (inactive) | > 100 µM (inactive) | > 100 µM (inactive) | > 100 µM (inactive) | > 100 µM (inactive) | > 100 µM (inactive) | –
15 | COC(=O)[C@H]1C2CC[C@@H]3C45C[C@@H](c6ccoc6)O[C@@H]4O[C@@H](O2)C31CCC5C (stereo partly drawn) | > 100 µM (inactive) | > 100 µM (inactive) | > 100 µM (inactive) | > 100 µM (inactive) | > 100 µM (inactive) | 91.6 µM (inactive) | 71.1 µM (inactive) | 68.5 µM (inactive) | 91.2 µM (inactive) | > 100 µM (inactive) | > 100 µM (inactive) | > 100 µM (inactive) | – | > 100 µM (inactive) | –
16 | COc1cc([C@@H]2OC(=O)C3C2C(=O)O[C@H]3c2ccc(O)c(OC)c2)ccc1O (stereo partly drawn) | > 100 µM (inactive) | > 100 µM (inactive) | > 100 µM (inactive) | > 100 µM (inactive) | > 100 µM (inactive) | – | – | > 100 µM (inactive) | > 100 µM (inactive) | > 100 µM (inactive) | > 100 µM (inactive) | > 100 µM (inactive) | > 100 µM (inactive) | > 100 µM (inactive) | > 100 µM (inactive)
17 | Clc1ccc(CNc2nc3ccccc3nc2-c2cccs2)c(Cl)c1 | > 100 µM (inactive) | 97.3 µM (inactive) | 75.2 µM (inactive) | 61 µM (inactive) | > 100 µM (inactive) | – | > 100 µM (inactive) | > 100 µM (inactive) | > 100 µM (inactive) | > 100 µM (inactive) | – | – | 73.8 µM (inactive) | – | 31.2 µM (inactive)
18 | O=C(N/N=C(/CCN1CCCC1)CC(c1ccccc1)c1c(O)c2ccccc2oc1=O)c1ccncc1 (stereo not drawn) | > 100 µM (inactive) | > 100 µM (inactive) | > 100 µM (inactive) | > 100 µM (inactive) | 41.2 µM (inactive) | 72.6 µM (inactive) | > 100 µM (inactive) | > 100 µM (inactive) | > 100 µM (inactive) | > 100 µM (inactive) | > 100 µM (inactive) | > 100 µM (inactive) | > 100 µM (inactive) | > 100 µM (inactive) | 15.4 µM (inactive)
19 | COC(=O)C(C(=O)C(=O)Nc1cccc([N+](=O)[O-])c1)c1nc2ccc([N+](=O)[O-])cc2nc1O (stereo not drawn) | > 100 µM (inactive) | > 100 µM (inactive) | > 100 µM (inactive) | > 100 µM (inactive) | > 100 µM (inactive) | > 100 µM (inactive) | > 100 µM (inactive) | > 100 µM (inactive) | > 100 µM (inactive) | > 100 µM (inactive) | > 100 µM (inactive) | > 100 µM (inactive) | > 100 µM (inactive) | > 100 µM (inactive) | > 100 µM (inactive)
